Results reported in ChEMBL document CHEMBL5380773, “Novel Feleucin-K3-Derived Peptides Modified with Sulfono-γ-AA Building Blocks Targeting Pseudomonas aeruginosa and Methicillin-Resistant Staphylococcus aureus Infections” (J Med Chem, 2023).
Converted amounts (≈) assume the structure as drawn. The source made the active and inactive calls. The calls are words filed in the database; no cut-off is given here. Numbered stars: 1 amine (or outer) side, 2 acyl side, 3 side chain; on linkers, the order of the positions; unused ones are H or OH. Square brackets hold non-standard residues; d marks the D form. Peptide text beside a SMILES is read from it. * marks the point of attachment. X2 = CC(C)C[C@H](N)CN(CC(=O)[*:2])[*:1]; X1 = O=S(=O)(c1ccc(I)cc1)*

Legend:
Cell membrane [1] = assay: Induction of membrane disruption in methicillin resistant Staphylococcus aureus ATCC 33591 assessed as membrane shrinkage at low concentration incubated for 24 hrs by SEM analysis; assay type: subcellular
Cell membrane [2] = assay: Induction of membrane disruption in Pseudomonas aeruginosa ATCC 27853 assessed as cytoplasmic leakage at 2 to 4 times MIC incubated for 24 hrs by TEM analysis; assay type: subcellular
Pseudomonas aeruginosa [3] = assay: Induction of protein leakage in Pseudomonas aeruginosa ATCC 27853 after 1 to 6 hrs; assay type: functional, organism-based; details: time 1-6 hrs
DNA [4] = assay: Binding affinity to Staphylococcus epidermidis DNA at 8 times MIC incubated for 30 mins; assay type: nucleic-acid assay
Cell membrane [5] = assay: Induction of membrane disruption in methicillin resistant Staphylococcus aureus ATCC 33591 assessed as membrane collapse at high concentration incubated for 24 hrs by SEM analysis; assay type: subcellular
Pseudomonas aeruginosa [6] = assay: Induction of resistant development in Pseudomonas aeruginosa ATCC 27853 at sub-MIC after 20 days; assay type: functional, organism-based; details: time 20.0 day
Staphylococcus aureus [7] = assay: Antimicrobial activity against methicillin resistant Staphylococcus aureus ATCC 33591 infected in skin wound mouse model assessed as reduction in ulcer at 1 to 4 mg/kg measured on day 3 and 7 by H and E staining based assay; assay type: functional, organism-based; details: dose 1-4 mg/kg, time 3-7 day
Pseudomonas aeruginosa [8] = assay: Antibiofilm activity against Pseudomonas aeruginosa ATCC 27853 assessed as reduction in biofilm thickness at 1 times MBIC90 incubated for 24 hrs by confocal laser scanning microscopy analysis (reference value: 90 micrometer); assay type: functional
Cell membrane [9] = assay: Induction of membrane disruption in Pseudomonas aeruginosa ATCC 27853 assessed as cell lysis at high concentration incubated for 24 hrs by SEM analysis; assay type: subcellular
Staphylococcus aureus [10] = assay: Antibiofilm activity against methicillin resistant Staphylococcus aureus ATCC 33591 assessed as reduction in biofilm structures at MBIC90 by scanning electron microscopic analysis; assay type: functional, organism-based
Staphylococcus aureus [11] = assay: Antimicrobial activity against methicillin resistant Staphylococcus aureus ATCC 33591 infected in skin wound mouse model assessed as wound healing at 0.25 mg/kg measured upto 10 days by H and E staining based assay; assay type: functional, organism-based; details: time <= 10.0 day
Staphylococcus aureus [12] = assay: (§1) Antimicrobial activity against methicillin resistant Staphylococcus aureus ATCC 33591 infected in BALB/c mouse assessed as reduction in tissue damage at 0.25 to 1 mg/kg infected with bacteria for 2 hrs prior to compound addition on 1, 24 and 48 hrs and measured after 72 hrs by H and E staining based assay; assay type: functional, organism-based; details: dose 0.25-1 mg/kg
Cell membrane [13] = assay: Induction of outer membrane disruption in Pseudomonas aeruginosa in presence of CaCl2 by NPN uptake assay; assay type: subcellular
Pseudomonas aeruginosa [14] = assay: Bactericidal activity against Pseudomonas aeruginosa ATCC 27853 at 4 times MIC after 1 hr; assay type: functional, organism-based
Staphylococcus aureus [15] = assay: Antimicrobial activity against methicillin resistant Staphylococcus aureus ATCC 33591 infected in skin wound mouse model assessed as reduction in edema at 1 to 4 mg/kg measured on day 3 and 7 by H and E staining based assay; assay type: functional, organism-based; details: dose 1-4 mg/kg, time 3-7 day
Pseudomonas aeruginosa [16] = assay: Antimicrobial activity against Pseudomonas aeruginosa ATCC 27853 infected in C57BL/6J mouse assessed as reduction in lung bacterial load at 2.5 mg/kg, ip measured after 72 hrs […] (reference value: 6.4 10^3CFU/mg); assay type: functional
Staphylococcus aureus [17] = assay: as §1, with “sessile bacteria attached on catheters surface” for “tissue damage”; assay type: functional, organism-based; details: dose 0.25-1 mg/kg
Cell membrane [18] = assay: Induction of membrane disruption in Pseudomonas aeruginosa ATCC 27853 assessed as separation of outer membrane at 2 to 4 times MIC incubated for 24 hrs by TEM analysis; assay type: subcellular
[19] = tested on: Staphylococcus epidermidis; assay: Antibiofilm activity against Staphylococcus epidermidis ATCC 12228 assessed as reduction in biofilm thickness; assay type: functional, organism-based
Staphylococcus aureus [20] = assay: Antimicrobial activity against methicillin resistant Staphylococcus aureus ATCC 33591 infected in skin wound mouse model assessed as reduction in skin damage at 0.25 mg/kg measured upto 10 days by H and E staining based assay; assay type: functional, organism-based; details: time <= 10.0 day
Pseudomonas aeruginosa [21] = assay: Induction of ROS generation in Pseudomonas aeruginosa ATCC 27853 by DCFH-DA dye based fluorescence assay; assay type: functional, organism-based; details: TDE = time-dependent effect
Cell membrane [22] = assay: Induction of outer membrane disruption in Pseudomonas aeruginosa in presence of FeCl3 by NPN uptake assay; assay type: subcellular
Staphylococcus aureus [23] = assay: Bactericidal activity against Staphylococcus aureus ATCC 25923 at 4 times MIC after 2 to 4 hrs; assay type: functional, organism-based; details: time 2-4 hrs
Cell membrane [24] = assay: Induction of membrane disruption in methicillin resistant Staphylococcus aureus ATCC 33591 assessed as membrane blebbing at low concentration incubated for 24 hrs by SEM analysis; assay type: subcellular
Pseudomonas aeruginosa [25] = assay: Antimicrobial activity against Pseudomonas aeruginosa ATCC 27853 incubated for 18 hrs by microdilution method; assay type: functional
Staphylococcus aureus [26] = assay: Antibiofilm activity against methicillin resistant Staphylococcus aureus ATCC 33591 assessed as reduction in biofilm thickness; assay type: functional, organism-based
Cell membrane [27] = assay: Induction of membrane disruption in Pseudomonas aeruginosa ATCC 27853 assessed as membrane collapse at high concentration incubated for 24 hrs by SEM analysis; assay type: subcellular
Cell membrane [28] = assay: Induction of membrane disruption in Pseudomonas aeruginosa ATCC 27853 assessed as membrane shrinkage at low concentration incubated for 24 hrs by SEM analysis; assay type: subcellular
DNA [29] = assay: Binding affinity to Pseudomonas aeruginosa DNA at 8 times MIC incubated for 30 mins; assay type: nucleic-acid assay
Pseudomonas aeruginosa [30] = assay: Antimicrobial activity against Pseudomonas aeruginosa in presence of LPS/LTA; assay type: functional
[31] = tested on: Staphylococcus epidermidis; assay: Antibiofilm activity against Staphylococcus epidermidis ATCC 12228 assessed as reduction in biofilm mass; assay type: functional, organism-based
Pseudomonas aeruginosa [32] = assay: Antimicrobial activity against Pseudomonas aeruginosa ATCC 27853 infected in C57BL/6J mouse assessed as reduction in IL-1beta at 2.5 mg/kg, ip measured after 72 hrs […]; assay type: functional, organism-based
Pseudomonas aeruginosa [33] = assay: Bactericidal activity against Pseudomonas aeruginosa ATCC 27853 at 4 times MIC after 30 mins by time kill assay; assay type: functional, organism-based
Pseudomonas aeruginosa [34] = assay: Antimicrobial activity against Pseudomonas aeruginosa ATCC 27853 infected in C57BL/6J mouse assessed as reduction in lung bacterial load at 10 mg/kg, ip measured after 72 hrs […] (reference value: 6.4 10^3CFU/mg); assay type: functional
Pseudomonas aeruginosa [35] = assay: Antibiofilm activity against Pseudomonas aeruginosa ATCC 27853 assessed as reduction in biofilm thickness at 1 times MBIC50 incubated for 24 hrs by confocal laser scanning microscopy analysis (reference value: 90 micrometer); assay type: functional
Staphylococcus aureus [36] = assay: Bactericidal activity against Staphylococcus aureus ATCC 25923 at 4 times MIC after 1 hr by time kill assay; assay type: functional, organism-based
Cell membrane [37] = assay: Induction of membrane disruption in methicillin resistant Staphylococcus aureus ATCC 33591 assessed as cell lysis at high concentration incubated for 24 hrs by SEM analysis; assay type: subcellular
Cell membrane [38] = assay: Induction of cytoplasmic membrane depolarization in methicillin resistant Staphylococcus aureus ATCC 33591 by DiSC35 dye based fluorescence method
Escherichia coli = assay: Bactericidal activity against Escherichia coli ATCC 25922 at 1 to 2 times MIC after 2 to 3 hrs by time kill assay; assay type: functional, organism-based; details: time 2-3 hrs
Pseudomonas aeruginosa [39] = assay: Antibiofilm activity against Pseudomonas aeruginosa ATCC 27853 at MBIC50; assay type: functional, organism-based

Which results are given for `CC(C)C[C@H](N)CN(CC(=O)N[C@@H](CCCCN)C(=O)N[C@@H](CC(C)C)C(=O)N[C@@H](CC(C)C)C(=O)N[C@@H](CCCCN)C(=O)N[C@@H](CCCCN)C(=O)N[C@@H](CC(C)C)C(=O)N[C@@H](CC(C)C)C(N)=O)S(=O)(=O)c1ccc(I)cc1` (X1-[X2]KLLKKLL-NH2)?
Activity (Cell membrane [1]): Active; Activity (Cell membrane [2]): Active; Activity (Pseudomonas aeruginosa [3]): Dose-Dependent Effect; Activity (DNA [4]): Active; Activity (Cell membrane [5]): Active; Activity (Pseudomonas aeruginosa [6]): Active; Activity (Staphylococcus aureus [7]): Active; Activity (Pseudomonas aeruginosa [8]): 20 um; Activity (Cell membrane [9]): Active; Activity (Staphylococcus aureus [10]): Active; Activity (Staphylococcus aureus [11]): Active; Activity (Staphylococcus aureus [12]): Active; Activity (Cell membrane [13]): Active; Activity (Pseudomonas aeruginosa [14]): Active; Activity (Staphylococcus aureus [15]): Active; Activity (Pseudomonas aeruginosa [16]): 3 10^3CFU/mg; Activity (Staphylococcus aureus [17]): Active; Activity (Cell membrane [18]): Active; Activity [19]: Active; Activity (Staphylococcus aureus [20]): Active; Activity (Pseudomonas aeruginosa [21]): Tde; Activity (Cell membrane [22]): Active; Activity (Staphylococcus aureus [23]): Active; Activity (Cell membrane [24]): Active; MIC (Pseudomonas aeruginosa [25]): 3 µg/mL (≈ 2.35 µM); Activity (Staphylococcus aureus [26]): Active; Activity (Cell membrane [27]): Active; Activity (Cell membrane [28]): Active; Activity (DNA [29]): Active; MIC (Pseudomonas aeruginosa [30]): ≥ 64 µg/mL; Activity [31]: Active; Activity (Pseudomonas aeruginosa [32]): Active; Activity (Pseudomonas aeruginosa [33]): Active; Activity (Pseudomonas aeruginosa [34]): 1 10^3CFU/mg; Activity (Pseudomonas aeruginosa [35]): 40 um; Activity (Staphylococcus aureus [36]): Active; Activity (Cell membrane [37]): Active; Activity (Cell membrane [38]): Active; Activity (Escherichia coli): Active; Activity (Pseudomonas aeruginosa [39]): Active
